Experimental findings from patent EP0076713B1, “Aminomethyl-1H-indole-4-methanol derivatives and their salts, process and intermediates for their preparation, their use as medicines and compositions containing them” (ROUSSEL-UCLAF, priority 1981, dated 1983) are described below.

Where a name gives a salt, the structure may show the parent alone. Bounds are passed on as bounds.

Assay type in all cases: in vivo
The test system of data set [1] is souris. In words: Acute toxicity, oral administration in mice. An excerpt: On a évalué les doses létales DLo des différents composés testés après administration par voie orale chez la souris.
On apelle DLo la dose maximale ne provoquant aucune mortalité en 8 jours.

Data set [2] deals with rats mâles de souche WISTAR. Kind of data set: Hypotensive activity in anaesthetised rats (carotid arterial pressure, intravenous administration). The note with it: relative to initial control pressure. On the procedure:
A) Détermination de l'activité hypotensive L'activité hypotensive a été étudiée sur des rats mâles de souche WISTAR pensant 300 g environ et anesthésiés au nembutal (50 mg/kg par voie intraveineuse).
Le produit testé a été administré par voie intraveineuse dans la veine jugulaire.
La pression artérielle carotidienne a été mesurée avant et après administration du produit testé.
Le tableau ci-après indique les variations exprimées en pourcentage de la pression artérielle après administration du produit testé par rapport à la pression artérielle témoin initiale: […]

For data set [3], the system named is ulcéres au niveau de l'estomac, par ligature du pylore. In words: Antiulcer activity, Shay technique (gastric ulcers induced by pylorus ligation). The note with it: pylorus-ligated rats, about 16 hours after treatment. An excerpt:
La technique utilisée est décrite par SHAY et al dans Gastroenterology, 5, 43 (1945).
La technique de SHAY consiste à induire chez ez des rats des ulcéres au niveau de l'estomac, par ligature du pylore.
Les animaux sont anesthésiés à l'éther. Une incision longitudinale est faite 1 cm environ au-dessous du sternum, la partie glandulaire de l'estomac et le duodénum sont mis à jour et une ligature est posée quelques mm au-dessous du pylore. Le plan musculaire est laissé tel quel et la peau est suturée par deux agrafes.
Les animaux reçoivent aussitôt après le dispersif ou la substance à étudier, par voie buccale, sous un volume de 0,5 ml/100 g, et sont maintenus sans nourriture ni boisson, jusqu'au sacrifice par saignée carotidienne qui a lieu environ 16 heures après le traitement.
Avant de prélèver l'estomac, une ligature est possé au-dessus du cardia.
Le liquide gastrique est recueilli afin d'en mesure le pH.
L'estomac est ensuite ouvert selon la grande courbure, rincé dans le sérum physiologique et étalé sur du papier millimétrique pour être examiné sous la loupe binoculaire.
On évalue macroscopiquement la gravité des lésions qui est côtée de 0 à 4 pour chaque estomac.
On détermine pour chaque lot de rat, l'intensité moyenne des ulcérations et on calcule la protection en rapportant l'index moyen du groupe à l'index moyen du groupe témoin.
On détermine également les valeurs de pH du liquide gastrique pour les animaux traités et les animaux témoins.

In data set [4] the test system is rats mâles spontanément hypertendus (souche Okamoto). In words: Antihypertensive activity in spontaneously hypertensive rats (tail arterial pressure, oral administration). The note with it: 1 mg/kg oral, relative to initial control pressure; for Variation % de la pression arterielle 1 heure après l'administration: 1 hour; for Variation % de la pression arterielle 4 heures après l'administration: 4 hours. From the text:
L'action antihypertensive a été étudiée sur des rats mâles spontanément hypertendus (souche Okamoto) âgés de 20 semaines pesant 300 à 320g.
Le produit a été administré par voie orale 48 heures après la pose d'un cathéter intracarotidien.
La pression artérielle a été mesurée à la queue du rat au moyen d'un manchon pneumatique et à l'aide d'un transducteur piezo-électrique de pression. La pression a été mesurée avant et une heure, quatre heures et vingt-quatre heures après l'administration du produit.
Le tableau ci-après indique les variations exprimées en pourcentages de la pression artérielle, après administration du produit, par rapport à la pression témoin initiale.

Setting [5] is: oral, mice, maximal dose causing no mortality in 8 days.
[6] abbreviates: dose −0,1 mg/kg [sic], intravenous.

Turning to `NCC(O)c1cccc2[nH]ccc12` (stereo not drawn) [Exemple 1, Fumaratede 1α-(aminométhyl)-1H-indole-4-méthanol], the DLo in data set [1] (setting [5]) was >1000 mg/kg.

Consider `CNCC(O)c1cccc2[nH]ccc12` (centres unmarked) [Exemple 3, a-(méthylamino)méthyl-1 H-indole-4-méthanol], for which the DLo in data set [1] (setting [5]) is listed as 600 mg/kg. The “Variation % de la pression arterielle 10 minutes après l'administration” value in data set [2] (0,1 mg/kg intravenous) is −5%. In data set [2] (setting [6]), the “Variation % de la pression arterielle 1 minute après l'administration” value was “+19%”, the “Variation % de la pression arterielle 5 minutes après l'administration” value is −4% and the “Variation % de la pression arterielle 30 minutes après l'administration” value is −9%.

With `CC(C)NCC(O)c1cccc2c1CCN2` (stereo not drawn) [Exemple 5, α-[[(1-méthyléthyl)amino]méthyl]2,3-dihydro-1H-indole-4-méthanol], the “Ulcération % de protection par rapport aux témoins” value in data set [3] (0,4 mg/kg oral) came to 60%; in data set [3] (0,08 mg/kg oral) it was 66%; in data set [3] (2 mg/kg oral) it was 90%. In addition, the “pH du liquide gastrique animaux traités” value in data set [3] (0,4 mg/kg oral, controls pH 2,2) is recorded as 2,5; in data set [3] (0,08 mg/kg oral, controls pH 2,2), 2,6; in data set [3] (2 mg/kg oral, controls pH 2) it was 2,6. For the same compound, the DLo in data set [1] (setting [5]) was 200 mg/kg. The “Variation % de la pression arterielle 1 minute après l'administration” value is listed as −24% in data set [2] (0,1 mg/kg intravenous) and −20% in data set [2] (1 mg/kg intravenous). For the same compound, the figures for the “Variation % de la pression arterielle 5 minutes après l'administration” value in data set [2] (0,1 mg/kg intravenous) and in data set [2] (1 mg/kg intravenous) were −28% and −19%, respectively. The results for the “Variation % de la pression arterielle 10 minutes après l'administration” value in data set [2] (0,1 mg/kg intravenous) and in data set [2] (1 mg/kg intravenous) were −26% and −17%, respectively. In addition, the “Variation % de la pression arterielle 30 minutes après l'administration” value in data set [2] (0,1 mg/kg intravenous) is −22%; in data set [2] (1 mg/kg intravenous), −14%. Besides, in data set [4], the “Variation % de la pression arterielle 1 heure après l'administration” value was −27%. Moreover, the “Variation % de la pression arterielle 4 heures après l'administration” value in data set [4] is reported as −24%. In data set [4] (24 hours), the “Variation % de la pression arterielle 24 heures après l'administration” value is on record as −17%.

As to `CNCC(O)c1cccc2c1CCN2` (centres unmarked) [Exemple 6, a-(méthylamino)métyl-2,3-dihydro-1 H-indole-4-méthanol], the DLo in data set [1] (setting [5]) is > 400 mg/kg.

With `OC(CNCc1ccccc1)c1cccc2[nH]ccc12` (centres unmarked) [Exemple 8, Oxalate acidede 1'a[[(phénylméthyl)amino]méthyl]-1 H-indole-4-méthanol], the DLo in data set [1] (setting [5]) was 100 mg/kg. Besides, in data set [2] (1 mg/kg intravenous), the “Variation % de la pression arterielle 1 minute après l'administration” value is listed as −9%, the “Variation % de la pression arterielle 5 minutes après l'administration” value is listed as −8%, the “Variation % de la pression arterielle 10 minutes après l'administration” value was −6% and the “Variation % de la pression arterielle 30 minutes après l'administration” value is given as −10%. Also, in data set [2] (10 mg/kg intravenous), the “Variation % de la pression arterielle 1 minute après l'administration” value is on record as −38%, the “Variation % de la pression arterielle 5 minutes après l'administration” value is listed as −21%, the “Variation % de la pression arterielle 10 minutes après l'administration” value is listed as −21% and the “Variation % de la pression arterielle 30 minutes après l'administration” value is −15%.

Turning to `OC(CNCCc1ccccc1)c1cccc2[nH]ccc12` (centres unmarked) [Exemple 9, Oxalate acidede 1'a-[[(2-phényléthyl)amino]méthyl]-1 H-indole-4-méthanol], the DLo in data set [1] (mouse, in vivo, po, 11520 min) was determined as 80 mg/kg. Further, in data set [2] (1 mg/kg intravenous), the “Variation % de la pression arterielle 1 minute après l'administration” value is reported as −13%, the “Variation % de la pression arterielle 5 minutes après l'administration” value is listed as −11%, the “Variation % de la pression arterielle 10 minutes après l'administration” value is reported as −4% and the “Variation % de la pression arterielle 30 minutes après l'administration” value is −3%. In data set [2] (10 mg/kg intravenous), the “Variation % de la pression arterielle 1 minute après l'administration” value is −48%, the “Variation % de la pression arterielle 5 minutes après l'administration” value is listed as −44%, the “Variation % de la pression arterielle 10 minutes après l'administration” value was −37% and the “Variation % de la pression arterielle 30 minutes après l'administration” value was −33%.

On to `OC(CNCC(O)c1cccc2[nH]ccc12)COc1ccccc1` (centres unmarked) [Exemple 10, a-[[(2-hydroxy-3-phénoxy-propyl)amino]méthyl]-1H-indole-4-méthanol], for which, in data set [1] (mouse, in vivo, po, 11520 min), the DLo is listed as > 400 mg/kg. Further, in data set [2] (1 mg/kg intravenous), the “Variation % de la pression arterielle 1 minute après l'administration” value is given as −32%, the “Variation % de la pression arterielle 5 minutes après l'administration” value was −14%, the “Variation % de la pression arterielle 10 minutes après l'administration” value is listed as −15% and the “Variation % de la pression arterielle 30 minutes après l'administration” value is −13%.

Consider `CCCNCC(O)c1cccc2[nH]ccc12` (centres unmarked) [Exemple 11, Oxalatede 1'a[[(1-propyl)amino]méthyl]-1H-indole-4-méthanol], for which, in data set [3] (1 mg/kg oral), the “Ulcération % de protection par rapport aux témoins” value came out at 48%. In addition, in data set [3] (1 mg/kg oral, controls pH 3,3), the “pH du liquide gastrique animaux traités” value is on record as 3,2. For the same compound, the “Ulcération % de protection par rapport aux témoins” value in data set [3] (5 mg/kg oral) came out at 63%. The “pH du liquide gastrique animaux traités” value in data set [3] (5 mg/kg oral, controls pH 3,0) was 2,9. In data set [1] (setting [5]), this compound gave a DLo of 100 mg/kg. For the same compound, in data set [2] (0,1 mg/kg intravenous), the “Variation % de la pression arterielle 1 minute après l'administration” value is reported as −11%, the “Variation % de la pression arterielle 5 minutes après l'administration” value is −12%, the “Variation % de la pression arterielle 10 minutes après l'administration” value is −12% and the “Variation % de la pression arterielle 30 minutes après l'administration” value was −13%. In addition, in data set [2] (1 mg/kg intravenous), the “Variation % de la pression arterielle 1 minute après l'administration” value was −22%, the “Variation % de la pression arterielle 5 minutes après l'administration” value was −33%, the “Variation % de la pression arterielle 10 minutes après l'administration” value is −33% and the “Variation % de la pression arterielle 30 minutes après l'administration” value was −30%.

As for “Oxalate neutre de 1'a[[(1-méthyléthyl)amino]méthyl]-1H-indole-4-méthanol [Exemple 2]”, the DLo in data set [1] (mouse, in vivo, po, 11520 min) is listed as 200 mg/kg. Also, in data set [2] (0,1 mg/kg intravenous), the “Variation % de la pression arterielle 1 minute après l'administration” value was −36%, the “Variation % de la pression arterielle 5 minutes après l'administration” value is −28%, the “Variation % de la pression arterielle 10 minutes après l'administration” value is −30% and the “Variation % de la pression arterielle 30 minutes après l'administration” value was −27%. Moreover, in data set [2] (1 mg/kg intravenous), the “Variation % de la pression arterielle 1 minute après l'administration” value is reported as −41%, the “Variation % de la pression arterielle 5 minutes après l'administration” value was −38%, the “Variation % de la pression arterielle 10 minutes après l'administration” value is listed as −29% and the “Variation % de la pression arterielle 30 minutes après l'administration” value was −20%. In addition, in data set [4], the “Variation % de la pression arterielle 1 heure après l'administration” value is given as −22% and the “Variation % de la pression arterielle 4 heures après l'administration” value was −21%.

“oxalate neutre de 1'a-[[(1-éthylpropyl)amino]méthyl]-1 H-indole-4-méthanol [Exemple 7]” showed a DLo in data set [1] (mouse, in vivo, po, 11520 min) of 80 mg/kg. Also, in data set [2] (10 mg/kg intravenous), the “Variation % de la pression arterielle 1 minute après l'administration” value was −59%, the “Variation % de la pression arterielle 5 minutes après l'administration” value is −56%, the “Variation % de la pression arterielle 10 minutes après l'administration” value is −50% and the “Variation % de la pression arterielle 30 minutes après l'administration” value was −35%.
